From patent US20230404953A1, “COMPOUND FOR THE REDUCTION OF WHITE ADIPOSE TISSUE AND THE TREATMENT OF OVERWEIGHT AND OBESITY” (UNIVERSIDAD DE GRANADA, priority 2020, published 2023)

Experiments:
3T3L1 preadipocytes = assay: MTT cell proliferation assay in preadipocytes; format: cell-based; settings: 1 mM β-RA for 5 days, proliferation conditions
Description: (§1) It is known that one of the WAT expansion mechanisms is hyperplasia, i.e., the capacity of WAT to recruit new adipocytes proliferated from precursor cells. To check whether the effect of β-RA on WAT may also constitute a direct action on WAT, the proliferative capacity of a preadipocyte cell line (3T3L1) subjected to treatment with β-RA was determined in in vitro assays, and the results were compared with those obtained in a myoblast cell line (C2C12). This could be used to determine whether the possible effects are specific of a given cell type, excluding those signals and consequences resulting from the physiological context of the in vivo studies. Preadipocyte cell line 3T3L1 and myoblast cell line C2C12 were provided by the Cell Culture Department of the Science Instrumentation Center of the University of Granada. The cells were cultured in glucose-rich DMEM-GlutaMAX supplemented with 10% BCS or FBS, 1% non-essential amino acids MEM, and 1% antibiotic/antimycotic. Treatment with β-RA was administered at a concentration of 1 mM for 5 days. A control group was also treated with vehicle (DMSO) at the same concentration (Luna-Sanchez et al., 2015). The proliferation assay was performed with Vybrant® MTT Cell Proliferation Assay Kit (ThermoFisher Scientific), following the indications of the manufacturing company.

white adipocytes = assay: Morphology of WAT in mice with a HFHS diet (hematoxylin and eosin staining); format: in vivo; settings: HFHS diet + β-RA, 16 weeks
Source text: (§2) In this example intended for performing a short-term evaluation in an induced metabolic syndrome model, the animals were fed on a high fat high sucrose (HFHS) diet (32% carbohydrates, 14% proteins, and 54% fats as energy sources), where said mice experience a higher fat gain, imitating a state of obesity.
(§3) The experimental treatment was based on the administration of β-RA in the chow feed at a concentration of 0.33% (weight/weight), which represents a dose of 0.25-0.75 g/kg of body weight/day.
(§4) The mice were put under treatment at two months of life, with said treatment being maintained for 4 months. Analyses were performed at 6 months of life, after 4 months of treatment.
(§5) At the level of WAT, CoQ metabolism was evaluated by determining the levels of the major form of CoQ in rodents, i.e., CoQ9, as well as the levels of two limiting enzymes in the CoQ biosynthesis pathway, i.e., the hydroxylase Coq7 and the methyltransferase Coq5. […] These molecular changes translate into morphological changes observed with hematoxylin and eosin staining. […] As a result, the area occupied by adipocytes after treatment with a HFHS diet is larger than after treatment with the standard diet, with the number of adipocytes being smaller. Treatment with β-RA normalizes both the area of the adipocytes (FIG. 16G) and the number thereof (FIG. 16H).

[1] = CAG-CreER^T2; Mclk1^Loxp/Loxp control mice; cited from earlier work
C2C12 myoblasts = assay: MTT cell proliferation assay in myoblasts; format: cell-based; settings: 1 mM β-RA for 5 days, proliferation conditions
Description: as §1

kidney mitochondria = assay: Kidney mitochondrial proteome in mice with a standard diet; format: in vivo
Description: To check if β-RA has effects on energy metabolism in mitochondria, a study was performed on the mitochondrial proteome of kidneys, because the highest β-RA levels are reached in this tissue (see Table 1).
Each kidney was dissected, and the mitochondrial fraction was then isolated by differential centrifugation. Each pellet was resuspended in […] of HEENK medium with a protease inhibitor. The samples were lysed, digested, and treated prior to injection in UHPLC. After quality control, the samples were injected into a UHPLC 1290 system (Agilent Technologies; Santa Clara, USA) coupled to a Q Exactive HF mass spectrometer (Thermo Scientific; Bremen, Germany) in the previously described conditions (Liu F, Lossl P, Rabbitts B M, Balaban R S, Heck A J R (2018) The interactome of intact mitochondria by cross-linking mass spectrometry provides evidence for coexisting respiratory supercomplexes. Mol Cell Proteomics 17: 216-232). The raw files generated were analyzed using MaxQuant v1.6.10 software (Cox J, Mann M (2008) MaxQuant enables high peptide identification rates, individualized p.p.b.-range mass accuracies and proteome-wide protein quantification. Nat Biotechnol 26: 1367-72). The files generated with MaxQuant were analyzed with Perseus: LFQ data was log 2-transformed, and identifications that were present in at least 3 of the 5 replicates were kept for subsequent analyses. For the volcano plot, a P-value threshold of 0.01 and 1 for the LFQ value log 2 difference has been established.

[2] = system: wild-type mice with a HFHS diet; assay: Plasma levels of insulin and GIP in mice with a HFHS diet; format: in vivo; settings: HFHS diet + β-RA, 16 weeks
Source text: as §2, §3, §4
Plasma levels of insulin and gastric inhibitory peptide (GIP), also called glucose-dependent insulinotropic peptide, given that both of them tend to increase in cases of obesity with insulin resistance, were determined. […] The administration of β-RA to mice with a HFHS diet reduced the plasma levels of insulin (FIG. 14A) and GIP (FIG. 14B), normalizing said values.

[3] = system: wild-type mice with a HFHS diet; assay: Phenotypic state of mice with a high fat high sucrose (HFHS) diet (induced obesity); format: in vivo; settings: HFHS diet + 0.33% (w/w) β-RA, 16 weeks
Source text: (§6) For the studies, c57Bl6j strain control mice were used under the protocols approved by the Animal Experimentation Ethics Committee of the University of Granada and registered by the competent body, the General Directorate of Agricultural and Livestock Production of the Ministry of Agriculture, Livestock, Fisheries, and Sustainable Development of the Regional Government of Andalusia, under reference numbers 18/02/2019/016 and 16/09/2019/153.
as §2, §3, §4
(§7) Survival and body weight were determined through continuous records throughout the life of the animals. Motor coordination and activity were evaluated through the rotarod test. The muscle strength of the hind limbs was evaluated through the grip strength test. The image and the weight of the tissues were taken immediately after sacrificing and dissecting the animals.

[4] = system: white adipose tissue (WAT); assay: CoQ metabolism in white adipose tissue of mice with a HFHS diet; format: in vivo; settings: HFHS diet + β-RA, 16 weeks
Source text: as §2, §3, §4, §5

[5] = system: wild-type mice with a standard diet; assay: Liver morphology of mice with a standard diet (H&E and Oil Red O staining); format: in vivo; settings: standard diet + 0.33% (w/w) β-RA; 18 months of age; male and female mice
Source text: (§8) In this example intended for long-term evaluation during the aging process, the animals were kept on a standard rodent diet consisting mainly of carbohydrates (66% carbohydrates, 21% proteins, and 13% fats as energy sources), where these mice accumulate fat as they age, imitating a situation of overweight associated with age.
as §3
(§9) The mice were put under treatment after weaning at 21 days of life, with said treatment being maintained for the entire life of the animals. Analyses were performed at 18 months of life, unless another age is indicated, after 17 months of treatment.
In this example, photographs have been taken of the animals and tissues after dissection. The tissues were fixed in formalin and embedded in paraffin. Several sections (4 μm thick) were deparaffinized with xylene and stained with hematoxylin and eosin staining (Luna-Sanchez M, Diaz-Casado E, Barca E, Tejada M A, Montilla-Garcia A, Cobos E J, Escames G, Acuna-Castroviejo D, Quinzii C M, Lopez L C (2015) The clinical heterogeneity of coenzyme Q10 deficiency results from genotypic differences in the Coq9 gene. EMBO Mol Med 7: 670-87). […]

[6] = Quantification of β-RA levels in mouse tissues by HPLC-UV; format: in vivo; settings: wild-type mice 3 months of age, β-RA in standard diet at 0.33% (w/w), oral, mean±SD
Description: The experimental treatment was based on the administration of β-RA in the chow feed at a concentration of 0.33% (weight/weight), which represents a dose of 0.25-0.75 g/kg of body weight/day. […] Therefore, β-RA has been chronically administered orally. The quantification of β-RA was carried out by means of HPLC-UV using an Ultra Aqueous C18 column and a mobile phase consisting of 20 mM potassium phosphate and 15% acetonitrile (pH 2.5). The standard curve consisted of β-RA at a concentration of 5, 25, and 100 μg/mL. In this example, β-RA levels were determined in order to know the bioavailability of the compound when it is administered orally. It has been observed that β-RA appears in the brain, kidneys, liver, and skeletal muscle, with the kidneys being the tissues having the highest level of the compound (Table 1).

[7] = system: wild-type mice with a standard diet; assay: Survival and phenotypic state of mice with a standard diet (overweight associated with age); format: in vivo
Source text: as §6, §8, §3, §9, §7

[8] = standard diet + 0.33% (w/w) β-RA, 18 months of age

SMILES: O=C(O)c1ccc(O)cc1O [β-RA, 2,4-dihydroxybenzoic acid]
- 3T3L1 preadipocyte proliferation (3T3L1 preadipocytes): induces an inhibition
- Area of the adipocytes (white adipocytes): normalizes
- Number of adipocytes per area (white adipocytes): normalizes
- Hypertrophy of WAT (white adipocytes) (white adipocytes; H&E staining): prevents hypertrophy of WAT
- Body weight [1]: reduces the body weight
- Proliferative capacity of C2C12 myoblasts (C2C12 myoblasts): did not have a significant effect
- Changes in the mitochondrial proteome: proteins of acetyl-CoA production from pyruvate and of the Krebs cycle (kidney mitochondria; mice with standard diet + β-RA): an increase in proteins linked to the metabolic pathways for the production of acetyl-CoA from pyruvate and of the tricarboxylic acid cycle or Krebs cycle
- Expr Fold Change, ACO2 (kidney mitochondria; β-RA treated vs untreated mice, Aconitase 2 (Q99KI0)): 1.383
- Expr Fold Change, SUCLG1 (kidney mitochondria; β-RA treated vs untreated mice, Succinate CoA ligase subunit alpha (Q9WUM5)): 1.301
- Expr Fold Change, SUCLG2 (kidney mitochondria; β-RA treated vs untreated mice, Succinate CoA ligase subunit beta (Q9Z2I8)): 1.189
- Expr Fold Change, CS (kidney mitochondria; β-RA treated vs untreated mice, citrate synthase (Q9CZU6)): 1.485
- Expr Fold Change, DLAT (kidney mitochondria; β-RA treated vs untreated mice, dihydrolipoamide S-acetyltransferase (Q8BMF4)): 1.638
- Expr Fold Change, DLST (kidney mitochondria; β-RA treated vs untreated mice, dihydrolipoamide S-succinyltransferase (Q9D2G2)): 2.316
- Expr Fold Change, DLD (kidney mitochondria; β-RA treated vs untreated mice, dihydrolipoamide dehydrogenase (O08749)): 1.831
- Expr Fold Change, IDH3A (kidney mitochondria; β-RA treated vs untreated mice, isocitrate dehydrogenase (NAD(+)) 3 catalytic subunit alpha (Q9D6R2)): 1.72
- Expr Fold Change, IDH3B (kidney mitochondria; β-RA treated vs untreated mice, isocitrate dehydrogenase (NAD(+)) 3 non-catalytic subunit beta (Q91VA7)): 1.727
- Expr Fold Change, IDH3G (kidney mitochondria; β-RA treated vs untreated mice, isocitrate dehydrogenase (NAD(+)) 3 non-catalytic subunit gamma (P70404)): 1.573
- Expr Fold Change, MDH2 (kidney mitochondria; β-RA treated vs untreated mice, malate dehydrogenase 2 (P08249)): 1.397
- Expr Fold Change, OGDH (kidney mitochondria; β-RA treated vs untreated mice, oxoglutarate dehydrogenase (Q60597)): 2.05
- Expr Fold Change, PDHA1 (kidney mitochondria; β-RA treated vs untreated mice, pyruvate dehydrogenase E1 subunit alpha 1 (P35486)): 1.61
- Expr Fold Change, PDHB (kidney mitochondria; β-RA treated vs untreated mice, pyruvate dehydrogenase E1 subunit beta (Q9D051)): 1.711
- Plasma levels of gastric inhibitory peptide (GIP) [2]: reduced
- Plasma levels of insulin [2]: reduced
- Abdominal and visceral fat [3]: reduction of abdominal and visceral fat
- Skeletal muscle mass [3]: do not cause any changes
- Body weight (increase induced by HFHS diet) ([3]; male and female): counteracted said increase in weight
- Levels of CoQ9 in WAT [4]: increased said levels, achieving the normalization thereof
- Levels of biosynthetic protein Coq5 in WAT [4]: increase
- Levels of biosynthetic protein Coq7 in WAT [4]: increase in the levels of Coq7
- Onset of hepatic steatosis (lipid droplets in liver) [5]: prevented
- β-RA levels, Brain ([6]; brain): 1.26 ± 0.58 ng of β-RA/mg of protein
- β-RA levels, Kidney ([6]; kidney): 43.02 ± 16.51 ng of β-RA/mg of protein
- β-RA levels, Liver ([6]; liver): 7.04 ± 2.96 ng of β-RA/mg of protein
- β-RA levels, Muscle ([6]; skeletal muscle): 20.28 ± 9.39 ng of β-RA/mg of protein
- Body weight ([7]; standard diet + 0.33% (w/w) β-RA from weaning, all stages of development, male and female): reduction of weight
- Survival ([7]; standard diet + 0.33% (w/w) β-RA from weaning, old-age stage (18-24 months)): increase in survival
- Amount of abdominal and visceral fat [7, 8]: reduction in the amount of abdominal and visceral fat
- Motor coordination (rotarod test) [7, 8]: slight upward trend
- Muscle strength of the hind limbs (grip strength test) [7, 8]: remained unchanged and even slightly increased in reference to the total weight of the animal
- Weight of the skeletal muscles ([7]; standard diet + 0.33% (w/w) β-RA, 18 months of age, hind limbs): maintained in the normal range
